The text below walks through data of patent US8735650B2, “Methods of modulating production of phenylpropanoid compounds in plants” (Yissum Research Development Company of the Hebrew …, priority 2007, dated 2014).

Experiment [1] deals with Pap1-transgenic petunia flowers. The experiment is described as follows: Phe feeding, volatile emission by dynamic headspace GC-MS. In kind it is in vivo, Petunia hybrida. Here is the method: (§1) Volatiles emitted from detached petunia flowers were collected using an adsorbent trap consisting of a glass tube containing 200 mg of polymer Porapak Type Q (80/100 mesh; Alltech, Deerfield, Ill.) held in place with plugs of silanized glass wool (Guterman et al., 2006). Trapped volatiles were eluted using 3 ml hexane, and 2 μg iso-butylbenzene was added per sample as an internal standard for each. To determine pool sizes of volatile compounds, limbs were ground in liquid nitrogen and extracted in hexane (4 ml g^−1 of tissue) containing 0.5 μg ml^−1 iso-butylbenzene as the internal standard. Following overnight incubation with shaking at 150 rpm, extract was centrifuged at 10,500 g for 10 min and the supernatant filtered through a 25-ml syringe with a […] sterile nylon filter. To assess whether the bound form of benzaldehyde accumulated in petunia limbs, tissue (0.6 g) was incubated with 9 ml phosphate citrate buffer pH 4.5 with or without 15 units of glucosidase mixture Novarom G (Novo Nordisk Ferment Ltd., Bagsvaerd, Denmark) at 37° C. overnight, and then transferred to −20° C. to stop enzymatic reactions. Hexane (10 ml) containing 0.5 μg ml^−1 iso-butylbenzene as an internal standard was added to each sample, and following vortexing, the upper phase was recovered.
(§2) GC-MS analysis was performed using a device composed of a Pa1 auto-sampler (CTC Analytic, Zwingen, Switzerland), a TRACE GC 2000 equipped with an Rtx-5SIL MS (Restek, i.d. 0.25 μm, 30 m×0.25 mm) fused-silica capillary column, and a TRACE DSQ quadrupole mass spectrometer (ThermoFinnigan, Hemel, UK). Helium was used as the carrier gas at a flow rate of 0.9 ml min^−1. The injection temperature was set to 250° C. (splitless mode), the interface to 280° C., and the ion source adjusted to 200° C. The analysis was performed under the following temperature program: 5 min of isothermal heating at 50° C., followed by a 5° C. min^−1 oven temperature ramp to […], and a final increase from 250 to 280° C. at 10° C. min^−1. The transfer line temperature was 280° C. The system was equilibrated for 1 min at 70° C. before injection of the next sample. Mass spectra were recorded at 2 scan s^−1 with a scanning range of 40 to 450 mass-to-charge ratio, and an electron energy of 70 eV. Compounds were tentatively identified (>95% match) based on NIST/EPA/NIH Mass Spectral Library (Data Version: NIST 05, Software Version 2.0d) using the XCALIBUR v1.3 program (ThermoFinnigan) library. Further identification of compounds was based on comparison of mass spectra and retention times with those of authentic standards (Sigma, Milwaukee, Wis.) analyzed under similar conditions.
(§3) For evaluating the affect of Phe feeding on volatile production, control and Pap1-transgenic flowers were collected at 0800 hour and 1600 hour, placed in a glass vial containing 10 ml of water with or without 5 mg L-phenylalanine (Duchefa, Haarlem, Netherlands) and headspace was collected during the day (0800-1600 hours) and night (1600-0800 hours). To assess internal pools of volatiles, control and Pap1-transgenic flowers collected at 1600 hour were placed in a glass vial containing 10 ml of water with or without L-phenylalanine and at 2300 hour volatile were extracted as above.

Experiment [2] concerns control petunia flowers. Described as above. In kind it is in vivo, Petunia hybrida. The note with it: during the night. Here is the method: as §1, §2, §3
Where [3] appears, read: Phe fed vs non-fed Pap1-transgenic flowers, during the day.

With `N[C@@H](Cc1ccccc1)C(=O)O` [Phe, L-phenylalanine], in experiment [1] (Pap1-transgenic flowers, Phe feeding during the night), the “volatile accumulation and emission” value is listed as “unaffected”. In addition, in experiment [1] (setting [3]), the “increase in benzaldehyde emission” value was “about 7 fold” and the “increase in methylbenzoate emission” value is reported as roughly 5 fold. In experiment [2], the “reduction in benzaldehyde emission” value is on record as 2-3 fold and the “reduction in methylbenzoate emission” value is 2-3 fold.
